Like-named read-outs stand apart in the source and are kept apart here. No end group written: not given here.
Legend:
S. aureus (ATCC 6538P) = format: cell-based, Staphylococcus aureus
Procedure: (§1) The antibacterial activity of the peptides was examined in sterile 96-well plates (Nunc 96-well microtiter plates) in a final volume of 100 μL, as follows. Aliquots (50 μL) of a suspension containing bacteria at a concentration of 10^6 colony-forming units/mL in culture medium (LB medium) were added to 50 μL of peptide serially diluted in culture medium (100–0.78 μM). Inhibition of growth was determined by the eye after an incubation of 18–20 h at 37 °C. Antibacterial activities were expressed as the minimal inhibitory concentration (MIC), the concentration at which 100% inhibition of growth was observed after 18–20 h of incubation. In these experiments, we have tested the effect of the peptides on E. coli (ATCC 25922) and Staphylococcus aureus (ATCC 6538P) as representatives of both Gram-negative and Gram-positive bacteria, respectively.

E. coli (ATCC 25922) = format: cell-based
Procedure: as §1

[1] = test system: RAW264.7 murine macrophages; format: cell-based
Procedure: All in vitro assays were performed on RAW264.7 murine macrophages (ATCC TIB-71). Cells were grown in Dulbecco’s modified eagle medium (DMEM) supplemented with 10% fetal bovine serum (FBS), L-glutamine, sodium pyruvate, nonessential amino acids, and antibiotics (Biological Industries, Beit Haemek, Israel). The incubator was set on 37 °C with a humidified atmosphere containing 5% CO2.
One ×10^4 cells per well were grown overnight on a 96-well plate at 37 °C with a humidified atmosphere containing 5% CO2. The following day, the media were replaced with 90 μL fresh culture medium and 10 μL solution buffer containing different concentrations of the different peptides. Peptides were serially diluted in culture medium to concentration ranging from 100 to 0.78 μM. The cells were then incubated for 2 h before adding to each well 50 μL of […] (XTT) reaction solution (Biological Industries). Cell viability was determined as described previously.[52],[54] The LC50 (the concentration at which 50% of the cells die) for each peptide was obtained from the dose-dependent cell viability curves.

C57BL/6 mice = test: In vivo toxicity, i.p. injection; settings: 100 mg/kg i.p. in 400 μL saline, highest dose tested, female C57BL/6 mice, n = 2, observed 7 days
Procedure: Toxicity was tested by i.p. injection of K2(AL)8K2 (100 mg/kg in 400 μL saline) in female C57BL/6 mice (n = 2). Mice were continuously observed for 1 h immediately following injection and once per day for 7 days. To examine the effect of our peptide on acute septic shock driven by LPS hyper-activation of TLR4, we have used murine models as described before.[55],[56] Briefly, 12 weeks old C57BL/6 female mice were treated with 100 ng of LPS injected i.p. in a saline solution (200 μL, pH 6.5) containing 200 mg/mL of D-galactosamine (Calbiochem). Treated mice received one i.p. injection of 10 mg/kg peptide dissolved in saline (200 μL) followed by an injection of LPS. In the second model, heat-killed bacteria were used to induce a lethal septic shock. E. coli cells were grown to a mid-log phase (optical density = 0.5) at 37 °C, cooled on ice, and centrifuged at 1200g for 10 min at 4 °C. The cells were resuspended in saline for a concentration of 2 × 10^9 cells in 200 μL and heated at 95 °C for 30 min. Each animal received an i.p. injection of 2 × 10^9 cells in 200 μL saline followed by an injection of 10 mg/kg peptide dissolved in saline (200 μL). Animals were monitored for survival and signs of sepsis for the next 14 days after LPS injection. For LPS-driven septic shock, n = 8. For heat-killed bacteria, n = 11. […]

[2] = XTT, cells incubated 2 h with peptide, 100 to 0.78 μM
[3] = 100% inhibition of growth, by eye, after 18–20 h at 37 °C, LB medium, peptide 100–0.78 μM

Row | Substance | MIC S. aureus (ATCC 6538P) (S. aureus (ATCC 6538P)) [µM] | MIC E. coli (ATCC 25922) (E. coli (ATCC 25922); ATCC 25922) [µM] | toxicity to macrophages [1] | LC50 macrophages RAW 264.7 ([1]; 2 h) [µM] | cytotoxicity ([1]; RAW264.7) | LC50 macrophages RAW 264.7 [1, 2] [µM] | toxicity to macrophages ([1]; summary table, yes/no) | toxicity in vivo (C57BL/6 mice) | MIC S. aureus (ATCC 6538P) (S. aureus (ATCC 6538P); [3]) [µM] | MIC E. coli (ATCC 25922) (E. coli (ATCC 25922); [3]) [µM]
1 | ALALALALALALALALALKK-NH2 [(AL)9K2] | >100 | >100 | no | >100 |  |  |  |  |  | 
2 | KALALALALALALALALALK-NH2 [K(AL)9K] | >100 | >100 | no | >100 |  |  |  |  |  | 
3 | KALALALKALALKALALALK-NH2 [K(AL)3K(AL)2K(AL)3K] | 12.5 | 25 |  |  | moderate toxicity | 25 | yes |  |  | 
4 | KKALALALALALAKK-NH2 [K2(AL)5AK2] | >100 | >100 | no | >100 |  |  |  |  |  | 
5 | KKALALALALALALALALKK-NH2 [K2(AL)8K2] | >100 | >100 | no | >100 |  |  |  | no lasting adverse effects were observed |  | 
6 | KKALALALKK-NH2 [K2(AL)3K2] | >100 | >100 | no | >100 |  |  |  |  |  | 
7 | KKAVAVAVAVAVAVAVAVKK-NH2 [K2(AV)8K2] | >100 | >100 |  | 90 |  |  |  |  |  | 
8 | LALALALALALALALALALK-NH2 [L(AL)9K] |  |  |  |  |  | >100 | no |  | >100 | >100
